Measurements taken from ChEMBL document CHEMBL1817658, “Synthesis and biological activity of optically active phenylbutenoid dimers” (J Nat Prod, 2011).

Target: ATP-dependent translocase ABCB1 (Homo sapiens, UniProt P08183)
Experiment: Inhibition of P-gp in human MCF7/ADR cells assessed as potentiation of daunomycin-induced cytotoxicity at 50 microM incubated for 2 hrs by SRB assay
Assay type: cell-based
Details: nci/adr-res; call rule not given here

Chain of ATP-dependent translocase ABCB1 (P08183 whole entry): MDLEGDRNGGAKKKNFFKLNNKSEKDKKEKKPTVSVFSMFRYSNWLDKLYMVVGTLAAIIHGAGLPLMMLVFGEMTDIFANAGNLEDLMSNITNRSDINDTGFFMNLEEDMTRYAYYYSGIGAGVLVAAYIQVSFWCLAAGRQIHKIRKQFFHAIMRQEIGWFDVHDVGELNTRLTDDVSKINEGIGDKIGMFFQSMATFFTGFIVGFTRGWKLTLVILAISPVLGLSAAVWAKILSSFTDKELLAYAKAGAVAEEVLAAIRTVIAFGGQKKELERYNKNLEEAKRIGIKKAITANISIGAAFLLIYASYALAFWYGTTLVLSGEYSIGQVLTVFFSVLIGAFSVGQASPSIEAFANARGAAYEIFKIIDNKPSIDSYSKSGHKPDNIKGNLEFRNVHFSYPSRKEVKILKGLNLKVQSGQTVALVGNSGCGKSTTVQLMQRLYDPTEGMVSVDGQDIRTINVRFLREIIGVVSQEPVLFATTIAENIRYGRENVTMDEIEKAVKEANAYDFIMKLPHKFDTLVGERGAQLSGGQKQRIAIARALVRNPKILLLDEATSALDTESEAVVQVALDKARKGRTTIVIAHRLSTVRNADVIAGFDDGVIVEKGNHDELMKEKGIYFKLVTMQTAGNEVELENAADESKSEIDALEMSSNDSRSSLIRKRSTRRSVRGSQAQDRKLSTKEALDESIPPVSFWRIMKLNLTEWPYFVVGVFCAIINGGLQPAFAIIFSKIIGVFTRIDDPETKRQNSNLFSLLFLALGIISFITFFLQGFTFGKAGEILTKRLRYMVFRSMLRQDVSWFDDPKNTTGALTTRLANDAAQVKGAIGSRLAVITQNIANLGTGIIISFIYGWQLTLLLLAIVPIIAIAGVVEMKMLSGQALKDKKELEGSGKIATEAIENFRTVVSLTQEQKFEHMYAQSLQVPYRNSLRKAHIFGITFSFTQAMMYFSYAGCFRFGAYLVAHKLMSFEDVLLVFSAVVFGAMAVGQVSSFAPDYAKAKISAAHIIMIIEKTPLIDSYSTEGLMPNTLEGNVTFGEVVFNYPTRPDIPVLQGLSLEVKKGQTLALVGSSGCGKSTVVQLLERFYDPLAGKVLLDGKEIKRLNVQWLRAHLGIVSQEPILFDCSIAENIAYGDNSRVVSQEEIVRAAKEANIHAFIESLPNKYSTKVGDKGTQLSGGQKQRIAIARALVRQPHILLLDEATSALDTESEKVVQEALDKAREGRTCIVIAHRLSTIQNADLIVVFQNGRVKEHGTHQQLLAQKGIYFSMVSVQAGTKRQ

Structure (SMILES) | inhibition (INH)
COc1ccc(/C=C/[C@H]2CCC=C[C@@H]2c2ccc(OC)c(OC)c2)cc1OC | Active
COc1ccc(/C=C/[C@@H]2CCC=C[C@H]2c2ccc(OC)c(OC)c2)cc1OC | Active
COc1ccc(/C=C\[C@H]2CCC=C[C@@H]2c2ccc(OC)c(OC)c2)cc1OC | Active
